Assay results from patent publication US20180244611A1, “Modulators of the Cystic Fibrosis Transmembrane Conductance Regulator Protein and Methods of Use” (AbbVie S.à.r.l., priority 2017, published 2018).

Tests used:
[1] = target: T1, F508delCFTR (Homo sapiens, UniProt P13569, DEL508-508); experiment: Cell Surface Expression-Horse Radish Peroxidase (CSE-HRP) assay, test compound with co-corrector; type: cell-based; conditions: for Maximum % activity (with co-corrector): maximum at any tested concentration;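 as to Maximum % activity (with co-corrector): percent of 2 µM positive control corrector over DMSO; co-corrector is that same compound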
T1 construct: expressed in transfected cells; host or cells: CFBE41o- human lung-derived epithelial cells (CFBE41o-F508delCFTR-HRP), doxycycline-inducible
Experimental: (§1) Cell Surface Expression-Horse Radish Peroxidase (CSE-HRP) Assay
(§2) A cellular assay for measuring the F508delCFTR cell surface expression after correction with test compounds either without or with a co-corrector (2 μM of 3-[(2R,4R)-4-({[1-(2,2-difluoro-1,3-benzodioxol-5-yl)cyclopropyl]carbonyl}amino)-7-methoxy-3,4-dihydro-2H-chromen-2-yl]benzoic acid), was developed in human lung derived epithelial cell line (CFBE41o-) (Veit G et al, (2012) Mol Biol Cell. 23(21): 4188-4202). The development was achieved by expressing the F508delCFTR mutation along with a horseradish peroxidase (HRP) in the fourth exofacial loop, and then measuring the HRP activity using luminescence readout from these cells, CFBE41o-F508delCFTR-HRP, that were incubated overnight with the test corrector compounds, either without or with the co-corrector. For this primary assay, the CFBE41o-F508delCFTR-HRP cells were plated in 384-well plates (Greiner Bio-one; Cat 781080) at 4,000 cells/well along with 0.5 μg/mL doxycycline to induce the F508delCFTR-HRP expression and further incubated at 37° C., 5% CO2 for 72 hours. The test compounds were then added either without or with a co-corrector at the required concentrations and further incubated for 18-24 hours at 33° C. The highest concentration tested was 20 μM with an 8-point concentration response curve using a 3-fold dilution in both the test compound without or with the co-corrector. Three replicate plates were run to determine one EC50. All plates contained negative controls (dimethyl sulfoxide, DMSO) and positive control (2 μM of 3-[(2R,4R)-4-({[1-(2,2-difluoro-1,3-benzodioxol-5-yl)cyclopropyl]carbonyl}amino)-7-methoxy-3,4-dihydro-2H-chromen-2-yl]benzoic acid) as well as on-plate concentration response of the positive control. Post incubation, the plates were washed 5× times with Dulbecco's phosphate buffered saline (DPBS), followed by the addition of the HRP substrate, luminol (50 μL), and measuring the HRP activity using luminescence readout on EnVision® Multilabel Plate Reader (Perkin Elmer; product number 2104-0010). The raw counts from the experiment were analyzed using Accelrys® Assay Explorer v3.3.
(§3) Z′ greater than 0.5 was used as passing quality control criteria for the plates.
(§4) 1−[3*SDPositive Control+3*SDNegative Control/Absolute (MeanPositive Control−MeanNegative Control)]
(§5) wherein “SD” is standard deviation.
(§6) The % activity measured at each of the 8 test concentrations of the test compound added either without or with a co-corrector (2 μM of 3-[(2R,4R)-4-({[1-(2,2-difluoro-1,3-benzodioxol-5-yl)cyclopropyl]carbonyl}amino)-7-methoxy-3,4-dihydro-2H-chromen-2-yl]benzoic acid) was normalized to the on-plate positive control using the following formulae:
activity (Test compound with co-corrector)=[(test compound with co-corrector response−DMSO response)/(positive control response−DMSO response)]*100
(§7) The maximum % activity achieved for the test compound either without or with a co-corrector at any tested concentration is presented in Table 1 along with the respective EC50's calculated using the following general sigmoidal curve with variable Hill slope equation (described as Model 42 in the Accelrys® Assay Explorer v3.3 software):
(§8) General sigmoidal curve with concentration, response, top, bottom, EC50 and Hill slope. This model describes a sigmoidal curve with an adjustable baseline, a. The equation can be used to fit curves where response is either increasing or decreasing with respect to the independent variable, “x”.
“x” is a concentration of drug under test. “y” is the response. “a” is the maximum response, and “d” is the minimum response “c” is the inflection point (EC50) for the curve. That is, “y” is halfway between the lower and upper asymptotes when x=c. “b” is the slope-factor or Hill coefficient. The sign of b is positive when the response increases with increasing dose and is negative when the response decreases with increasing dose (inhibition).

[2] = target: T1, F508delCFTR; experiment: Cell Surface Expression-Horse Radish Peroxidase (CSE-HRP) assay, test compound without co-corrector; type: cell-based; conditions: for Emax: maximum at any tested concentration, without co-corrector; for EC50: test compound without co-corrector;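 as to Emax: percent of on-plate 2 µM positive control corrector response over DMSO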
Experimental: as §1, §2, §3, §4, §5, §6
% activity (Test compound without co-corrector)=[(test compound without co-corrector response−DMSO response)/(positive control response−DMSO response)]*100%
as §7, §8
“x” is a concentration of drug under test. “y” is the response. “a” is the maximum response, and “d” is the minimum response “c” is the inflection point (EC50) for the curve. That is, “y” is halfway between the lower and upper asymptotes when x=c. “b” is the slope-factor or Hill coefficient. The sign of b is positive when the response increases with increasing dose and is negative when the response decreases with increasing dose (inhibition). The data is presented with the qualifiers shown below: […]

[3] = normalized to positive control, with 2 μM co-corrector
[4] = CSE-HRP assay, test compound with 2 μM co-corrector
[5] = normalized to on-plate positive control, with 2 μM co-corrector
[6] = normalized to on-plate positive control

T1 sequence (P13569 with tags, fused parts or gaps DEL508-508): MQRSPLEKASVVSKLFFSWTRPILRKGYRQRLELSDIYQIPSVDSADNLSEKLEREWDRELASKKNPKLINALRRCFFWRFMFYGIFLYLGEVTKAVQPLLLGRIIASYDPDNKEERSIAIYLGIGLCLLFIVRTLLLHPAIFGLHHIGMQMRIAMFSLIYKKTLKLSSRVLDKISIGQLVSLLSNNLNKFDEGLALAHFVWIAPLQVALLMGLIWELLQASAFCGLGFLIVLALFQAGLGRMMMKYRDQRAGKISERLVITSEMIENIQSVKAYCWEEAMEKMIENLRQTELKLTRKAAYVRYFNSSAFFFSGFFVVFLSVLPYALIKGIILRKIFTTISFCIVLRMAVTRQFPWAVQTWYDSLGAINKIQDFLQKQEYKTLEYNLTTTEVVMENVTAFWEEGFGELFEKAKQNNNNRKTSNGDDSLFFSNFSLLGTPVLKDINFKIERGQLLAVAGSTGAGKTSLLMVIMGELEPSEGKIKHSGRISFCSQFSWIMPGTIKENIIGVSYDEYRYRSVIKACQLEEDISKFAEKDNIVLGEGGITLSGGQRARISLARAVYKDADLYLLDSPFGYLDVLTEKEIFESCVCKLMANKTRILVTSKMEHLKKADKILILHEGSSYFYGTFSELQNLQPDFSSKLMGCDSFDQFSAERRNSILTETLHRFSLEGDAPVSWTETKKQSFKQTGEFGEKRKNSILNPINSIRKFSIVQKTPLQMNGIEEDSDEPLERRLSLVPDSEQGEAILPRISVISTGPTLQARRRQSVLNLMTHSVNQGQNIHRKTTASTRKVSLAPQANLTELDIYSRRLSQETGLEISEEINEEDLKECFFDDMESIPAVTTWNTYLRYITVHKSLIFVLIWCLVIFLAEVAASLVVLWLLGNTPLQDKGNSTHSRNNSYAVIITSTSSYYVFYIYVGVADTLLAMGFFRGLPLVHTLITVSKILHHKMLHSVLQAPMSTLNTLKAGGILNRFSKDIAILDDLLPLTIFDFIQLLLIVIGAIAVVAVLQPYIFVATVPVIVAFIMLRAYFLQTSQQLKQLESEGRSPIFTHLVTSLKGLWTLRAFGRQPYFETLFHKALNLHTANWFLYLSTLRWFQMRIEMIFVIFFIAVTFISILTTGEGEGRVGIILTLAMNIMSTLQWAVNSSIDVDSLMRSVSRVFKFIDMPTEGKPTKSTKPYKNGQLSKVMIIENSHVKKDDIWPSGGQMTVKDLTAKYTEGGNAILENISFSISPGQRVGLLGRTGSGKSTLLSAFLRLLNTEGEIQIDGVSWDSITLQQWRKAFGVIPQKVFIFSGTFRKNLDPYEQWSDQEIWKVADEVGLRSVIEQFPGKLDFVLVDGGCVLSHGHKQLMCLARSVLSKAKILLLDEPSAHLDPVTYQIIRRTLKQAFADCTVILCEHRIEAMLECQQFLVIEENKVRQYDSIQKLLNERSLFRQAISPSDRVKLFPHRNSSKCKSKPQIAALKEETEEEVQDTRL

Structure (SMILES)	Maximum % activity (with co-corrector) [1, 3]	EC50 ([1]; with 2 μM co-corrector) [µM]	Emax ([2]; normalized to positive control) [%]	EC50 [2] [µM]	EC50 [1, 4] [µM]	Maximum % activity (with co-corrector) [1, 5]	EC50 ([2]; CSE-HRP assay) [µM]	Emax [2, 6] [%]
COc1ccc(Br)c2c1CCCC2C(=O)NS(=O)(=O)c1cccc2ncccc12 (centres unmarked) [Example I-56, 8-bromo-5-methoxy-N-(quinoline-5-sulfonyl)-1,2,3,4-tetrahydronaphthalene-1-carboxamide]	+++ (≥350)	< 3	≥ 150	< 3				
CC(C)(O)COc1ccc(Br)c2c1CCCC2C(=O)NS(=O)(=O)c1cccc2ccccc12 (centres unmarked) [II-93]	+ (<150)	< 3	< 50	≥ 10				
COc1ccc(C2CCC2)c2c1[C@H](C(=O)NS(=O)(=O)c1cccc3ncccc13)C2 (single isomer, unassigned) [Example I-148]	+++ (≥350)	< 3	≥ 150	< 3				
CCC1(C(=O)NS(=O)(=O)c2ccc(C)cc2C)CCc2c(Cl)cccc21 (centres unmarked) [III-114]					< 3	++ (≥150 and <350)	3 to 10	< 50
CCC1(C(=O)NS(=O)(=O)c2cccc3c2C(=O)N(C)C3=O)CCc2c(Cl)cccc21 (centres unmarked) [III-141]					≥ 10	+ (<150)	≥ 10	< 50
CCC1(C(=O)NS(=O)(=O)c2c(C)cccc2C(F)(F)F)CCc2c(Cl)cccc21 (centres unmarked) [III-126]					≥ 10	+ (<150)	≥ 10	< 50
COc1cccc2c1C(C(=O)NS(=O)(=O)c1cccc3ccccc13)CCC2 (centres unmarked) [Example II-115, 8-methoxy-N-(naphthalene-1-sulfonyl)-1,2,3,4-tetrahydronaphthalene-1-carboxamide]	+++ (≥350)	< 3	≥ 150	3 to 10				
Cc1ccccc1S(=O)(=O)NC(=O)[C@H]1CCc2c(Cl)cccc21 (single isomer, unassigned) [II-29]	++ (≥150 and <350)	< 3	50 to 150	3 to 10				
COc1ccc(Cl)c2c1[C@@H](C(=O)NS(=O)(=O)c1cccc3ccccc13)CC2 [Example I-71, (1S)-4-chloro-7-methoxy-N-(naphthalene-1-sulfonyl)-2,3-dihydro-1H-indene-1-carboxamide]	++ (≥150 and <350)	3 to 10	50 to 150	3 to 10				
COC(=O)c1cccc2c(S(=O)(=O)NC(=O)C3CCc4c(Br)ccc(OC)c43)cccc12 (centres unmarked) [II-135]	+++ (≥350)	3 to 10	≥ 150	3 to 10				
O=C(NS(=O)(=O)c1cccc2ccccc12)C1(CC2CC2)CCc2c(Cl)cccc21 (centres unmarked) [Example I-29, 4-chloro-1-(cyclopropylmethyl)-N-(naphthalene-1-sulfonyl)-2,3-dihydro-1H-indene-1-carboxamide]	+++ (≥350)	< 3	≥ 150	< 3				
COc1ccc(C2CCC2)c2c1[C@H](C(=O)NS(=O)(=O)c1cccc3ncn(C)c13)CC2 [Example I-126, (1R)-4-cyclobutyl-7-methoxy-N-(1-methyl-1H-benzimidazole-7-sulfonyl)-2,3-dihydro-1H-indene-1-carboxamide]	+++ (≥350)	< 3	≥ 150	< 3				
COc1ccc(C(F)(F)F)c2c1[C@H](C(=O)NS(=O)(=O)c1cccc3ccccc13)CC2 [Example I-94, (1R)-7-methoxy-N-(naphthalene-1-sulfonyl)-4-(trifluoromethyl)-2,3-dihydro-1H-indene-1-carboxamide]	+++ (≥350)	< 3	≥ 150	< 3				
COc1ccc(Br)c2c1[C@@H](C(=O)NS(=O)(=O)c1cccc3ncccc13)CCC2 (single isomer, unassigned) [Example I-62]	+++ (≥350)	< 3	≥ 150	3 to 10				
COc1ccc(C2CCC2)c2c1[C@H](C(=O)NS(=O)(=O)c1cccc3ccccc13)CC2 [Example I-81, (1R)-4-cyclobutyl-7-methoxy-N-(naphthalene-1-sulfonyl)-2,3-dihydro-1H-indene-1-carboxamide]	+++ (≥350)	< 3	≥ 150	< 3				
CCC1(C(=O)NS(=O)(=O)c2cccc(N(C)CCOC)c2C)CCc2c(Cl)cccc21 (centres unmarked) [III-173]					3 to 10	+++ (≥350)	3 to 10	50 to 150
CCC1(C(=O)NS(=O)(=O)c2cccc3c(Br)cccc23)CCc2c(Cl)cccc21 (centres unmarked) [II-78]	+++ (≥350)	< 3	50 to 150	< 3				
COc1ccc(C(F)(F)F)c2c1[C@@H](C(=O)NS(=O)(=O)c1cccc3ncccc13)CC2 [Example I-95, (1S)-7-methoxy-N-(quinoline-5-sulfonyl)-4-(trifluoromethyl)-2,3-dihydro-1H-indene-1-carboxamide]	+++ (≥350)	< 3	≥ 150	3 to 10				
CCC1(C(=O)NS(=O)(=O)c2c(OC)cccc2OC)CCc2c(Cl)cccc21 (centres unmarked) [III-121]					≥ 10	+ (<150)	≥ 10	< 50
COc1ccc(C2=CCOCC2)c2c1C(C(=O)NS(=O)(=O)c1cccc3ccccc13)CCC2 (centres unmarked) [II-121]	+++ (≥350)	< 3	≥ 150	3 to 10				
